Results taken from patent publication US20230065640A1, “COMBINATION THERAPIES AND BIOMARKERS FOR TREATING B-CELL LYMPHOMAS” (priority 2020, published 2023).

Assays:
[1] = test system: DLBCL with a MYCC rearrangement and BCL2 expression (MYCC/BCL2 associated lymphoma); assay: CDX mouse model of DLBCL with a MYCC rearrangement and BCL2 expression; type: in vivo, BALB/C-nu mice; settings: FIG. 8; alone and in combination with BCL2 inhibitor (ABT199)
Method: (§1) Tumor Xenograft models (CDX models). BALB/C-nu mice (6-8 weeks, SPF Biotechnology Co., Ltd) were inoculated by s.c. injection of tumor cell (SU-DHL-10, SU-DHL-4 or OCI-LY-7) suspension containing Matrigel (Corning)/PBS at a ratio of 1:1. 1×10^7 cells were inoculated. When tumors reached 150-200 mm^3, treatment was initiated. Tumor growth was monitored twice a week. Tumor volume was calculated by applying the following equation: tumor volume=½(length×width^2).

[2] = test system: DLBCL with a MYCC rearrangement; assay: CDX mouse model of DLBCL with a MYCC rearrangement; type: in vivo, BALB/C-nu mice
Method: as §1

[3] = test system: SU-DHL-10, OCI-LY-7 and SU-DHL-2 cells; assay: Cell proliferation XTT assay in DLBCL cells with or without MYCC rearrangement; type: cell-based, Human; settings: DLBCL with a MYCC rearrangement versus without, 72 h incubation, FIG. 4
Method: (§2) Cell Culture. Human diffuse large B-cell lymphoma cells, SU-DHL-10, SU-DHL-4, OCI-LY-7 and SU-DHL-2 cells (purchased from Cell Bank, Shanghai Institutes for Biological Sciences, Chinese Academy of Sciences) were cultured in RPMI 1640 (Hyclone™, SH30809.01B) supplemented with 10% fetal bovine serum (GEMINI, 900-108). Cultures were incubated at 37° C., in 5% CO2.
Cell Treatment and proliferation assay. SU-DHL-10, OCI-LY-7 and SU-DHL-2 cell were seeded in 96-well plates (Corning-Costar, 3599) at 40000 cells/well in 200 μl culture medium treated with YM155 (50, 25, 12.5, 2.5, 1, 0.5 nM; Apex BIO, A4221) or DMSO (0.1%; Amresco, 67-68-5). After 72 h incubation, cell proliferation was measured by XTT assay (Cell Proliferation Kit II XTT, sigma, 11465015001) according to manufacturer's protocols. Briefly, after YM155 treatment, added to each well 50 μl of the XTT labeling mixture, then incubated the micro-plate for 4 h in a humidified atmosphere. The absorbance of wavelength was determined at 490 nm (OD490) and 650 nm (OD650) respectively by SpectraMax 190. The IC50 was calculated by the value of OD490. OD650.

[4] = test system: DLBCL cells with a MYCC rearrangement; assay: Apoptosis assay (Annexin V/PI staining); type: cell-based, Human; settings: 24 hours post-treatment, FIG. 5A
Method: as §2
Apoptosis Assay. Apoptosis was detected by Annexin V/PI staining kit (Thermo Fisher) according to the manufacturer's instructions. Briefly, cells were plated at a density of 5×10^5 cells/mL in RPMI 1640 media with 2% FBS with desired concentrations of YM155. At 24 hours post-treatment the cells were harvested and tested for apoptosis by Annexin V and PI staining. Cell analysis was performed using a FACSAria (BD).

[5] = test system: c-MYC; assay: Western blot of c-MYC in DLBCL cells; type: cell-based, Human; settings: DLBCL cells with a MYCC rearrangement; treated 24 hours; FIG. 5B
Method: as §2
Western blot. SU-DHL-10, OCI-LY-7 and SU-DHL-2 cells were treated with/without YM155 for 24 hours. Cell lysates were prepared in lysis buffer (Thermo Fisher). Protein concentrations were determined using a Bio-Rad protein assay (Bio-Rad). 20 μg protein was loaded in 4%-12% SDS-PAGE (Invitrogen), and transferred to nitrocellulose. Membranes were blocked in 5% BSA (Sigma) for 1 hour, incubated with the primary antibody overnight at 4° C., washed and incubated with the appropriate horseradish-conjugated secondary antibody (1:5000, Cell Signaling Technology) for 1 hour at room temperature. An enhanced chemiluminescent kit (Beyotime Biotechnology) was used to visualize the signal. The following antibodies were used: c-MYC (Abcam) and GAPDH (Beyotime Biotechnology).

[6] = test system: SU-DHL-4 (double hit (MYCC/BCL2), CD20 positive); assay: SU-DHL-4 CDX model; type: in vivo, BALB/C-nu mice; settings: FIG. 10; b/c-nu; PC-002 5 mg/kg i.p., alone and in combination with CHOP or RCHOP
Method: CHOP: cyclophosphamide, 40 mg/kg, QW*3, D1, i.v., doxorubicin, 3.3 mg/kg, QW*3, D1, i.v., vincristine, 0.5 mg/kg, QW*3, D1, i.v., prednisone, 0.2 mg/kg, QD*5*3W,D1-5, p.o. RCHOP: rituximab, 25 mg/kg, QW*3, i.p., cyclophosphamide, 40 mg/kg, QW*3, D1, i.v., doxorubicin, 3.3 mg/kg, QW*3, D1, i.v., vincristine, 0.5 mg/kg, QW*3, D1, i.v., prednisone, 0.2 mg/kg, QD*5*3W,D1-5, p.o. PC-002: 5 mg/kg, QD*5*3w, D1-5, i.p.

[7] = test system: survivin; settings: Minematsu et al. 2008; cited from earlier work
[8] = test system: prostate, pancreatic, and lung cancer; settings: cited from earlier work
[9] = FIG. 6, alone and in combination with PARP inhibitor (olaparib)

| Molecule | effect on tumor growth [1] | effect on tumor growth [2, 9] | sensitivity of DLBCL to YM155 (cell proliferation) [3] | apoptosis of DLBCL cells [4] | MYCC expression [5] | effect on tumor growth ([2]; FIG. 7, alone and in combination with CHOP) | effect on tumor volume ([2]; FIG. 9, b/c-nu, PC-002 5 mg/kg i.p., alone and in combination with CHOP) | effect on tumor volume [6] | survivin expression [7] | antitumor activity ([8]; Minematsu et al. 2008) | anti-tumor effects in various in vivo cancer models ([8]; prostate, pancreatic, and lung cancer, Nakahara et al. 2007, Na et al. 2012) |
| --- | --- | --- | --- | --- | --- | --- | --- | --- | --- | --- | --- |
| CC1(C)CCC(CN2CCN(c3ccc(C(=O)NS(=O)(=O)c4ccc(NCC5CCOCC5)c([N+](=O)[O-])c4)c(Oc4cnc5[nH]ccc5c4)c3)CC2)=C(c2ccc(Cl)cc2)C1 [ABT199] | no significant effect on tumor growth | – | – | – | – | – | – | – | – | – | – |
| O=C(c1cc(Cc2n[nH]c(=O)c3ccccc23)ccc1F)N1CCN(C(=O)C2CC2)CC1 [olaparib] | – | no significant effect on tumor growth | – | – | – | – | – | – | – | – | – |
| 1-(2-Methoxyethyl)-2-methyl-4,9-dioxo-3-(pyrazin-2-ylmethyl)-4,9-dihydro-1H-naphtho[2,3-d] imidazolium bromide [YM155] | complete tumor regression | tumor regression | more sensitive | induces apoptosis | lowers the MYCC expression | tumor regression | significant effect on reducing tumor volume | profound effect on reducing tumor volume, essentially eliminating tumor growth | down-regulation of survivin | potent antitumor activity | exerts anti-tumor effects |
